Measured values as given in US20120230951A1 (priority 2011, published 2012).
Where two headings read alike, the source gives them in different places.

Key:
[1] = system: HCV GT1b replicon (2209-23 cell line, GT-1b Con1 subgenomic replicon in Huh-7); assay: HCV GT1b replicon luciferase reporter assay; assay type: cell-based; details: Hepatitis C virus
From the text: Determination of compounds HCV GT1b inhibitory replicon activity using the replicon luciferase reporter assay
The 2209-23 cell line was developed at Roche by stable transfection of the hepatoma cell line Huh-7 with a GT-1b Con1 subgenomic bicistronic replicon as previously described. Subgenomic replicon cell line was established in cured Huh7 cells, obtained from R. Bartenschlager (J. Virol. 2003 March; 77 (5):3007-19) The GT-1a H77 subgenomic replicon vector pRLuc H771b 75 S/I, was created by replacing the non structural region of the GT-1b Con1 subgenomic replicon by the one of the H77 strain, except for the first 75 amino acids of the NS3 protein that are from GT-1b Con1 strain. (J. Virol. 2001 77:5352-59) The GT-1a pRLuc H771b 75 S/I subgenomic replicon cell line was established in cured Huh7 cells, obtained from R. Bartenschlager. (J. Virol. 2003 March; 77 (5):3007-19)
All the subgenomic replicon cell lines were cultured in Dulbecco's Modified Eagle Medium (DMEM-Glutamax™-I; Invitrogen Cat #10569-010). The medium was supplemented with 10% Fetal Bovine Serum (Invitrogen Cat #10082-147), 1% penicillin/streptomycin (Mediatech Cat #30-002-CI) and 500 μg/ml of G418 (Mediatech Cat #30-234-CI). Cells were maintained at 37° C. in a humidified 5% CO2 atmosphere.
2209-23 cells were plated at a cell density of 5000 cells per well in 96 well plates (Becton Dickinson, Cat #35 3296). Cells were plated in 90 μl of Dulbecco's Modified Eagle Medium (DMEM-Glutamax™-I), (Invitrogen Cat #10569-010) medium was supplemented with 5% Fetal Bovine Serum (Invitrogen Cat #10082-147), 1% penicillin/streptomycin (Mediatech Cat #30-002-CI). The pRluc H771b 75 S/I cells were plated in 96-well plate at 3000 cells/well in DMEM-Glutamax™-I containing 5% FBS and 1% penicillin/streptomycin in 90 μl final volume. Cells were allowed to equilibrate for 24 hours at 37° C. and 5% CO2 at which time compounds were added. Compounds (or medium as a control) were added 24 hours post-plating in 3 fold dilutions at a final DMSO concentration of 1% in 10 ul volume. Renilla luciferase reporter signal was read 72 hours after addition of compounds using the Renilla Luciferase Assay System (Promega, cat #E2820). EC50 values were defined as the compound concentration at which a 50% reduction in the levels of renilla luciferase reporter was observed as compared to control samples in the absence of compound and was determined by non-linear fitting of compound dose-response data. The EC50 was approximated if maximum percentage inhibition was less than 90% and more than 70%.

[2] = system: GT-1a pRLuc H771b 75 S/I subgenomic replicon cell line; assay: HCV GT-1a replicon luciferase reporter assay; assay type: cell-based; details: Hepatitis C virus, GT1A, 72 h, read-out: GT-1a (IC50) (nM)
Outline: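 Huh-7-derived subgenomic replicon cells (GT-1b Con1 2209-23, 5000/well; GT-1a H77 chimera with Con1 NS3 first 75 aa, 3000/well) in 5% FBS DMEM; compounds added 24 h post-plating, 3-fold dilutions, 1% DMSO. Renilla luciferase read after 72 h; EC50 is 50% signal reduction versus untreated, non-linear fit.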

[3] = Huh-7, 2209-23 cells (GT-1b Con1), Renilla luciferase read 72 hours after addition of compounds, read-out: GT-1b (IC50)
[4] = Huh-7, 2209-23 cells (GT-1b Con1), Renilla luciferase read 72 hours after addition of compounds

Row | Structure (SMILES) | IC50 [1, 3] | IC50 [2] | IC50 ([1]; Huh-7, 72 h, read-out: GT-1b (IC50) (nM)) | EC50 [1, 4]
1 | COC(=O)NC(C(=O)N1CCCC1c1ncc(-c2ccc(-c3ccc(-c4cnc([C@@H]5Cc6cc(Br)cc7c6N5C(=O)[C@@H](NC(=O)OC)CC7)[nH]4)cc3)cc2)[nH]1)C(C)C (stereo in doubt) [Compound I-25, {(2S,5S)-9-Bromo-2-[5-(4′-{2-[(R)-1-((R)-2-methoxycarbonylamino-3-methyl-butyryl)-pyrrolidin-2-yl]-3H-imidazol-4-yl}-biphenyl-4-yl)-1H-imidazol-2-yl]-4-oxo-1,2,4,5,6,7-hexahydro-azepino[3,2,1-hi]indol-5-yl}-carbamic acid methyl ester] | 1.21 nM | 31.2 nM | – | –
2 | COC(=O)N[C@H]1CCc2cccc3c2N(C1=O)[C@H](c1nc2ccc(-c4ccc(-c5ccc6nc([C@@H]7CCCN7C(=O)[C@@H](NC(=O)OC)C(C)C)[nH]c6c5)cc4)cc2[nH]1)C3 [Compound I-5, {(2S,5S)-2-[6-(4-{2-[(S)-1-((S)-2-Methoxycarbonylamino-3-methyl-butyryl)-pyrrolidin-2-yl]-3H-benzoimidazol-5-yl}-phenyl)-1H-benzoimidazol-2-yl]-4-oxo-1,2,4,5,6,7-hexahydro-azepino[3,2,1-hi]indol-5-yl}-carbamic acid methyl ester] | 0.093 nM | 49.8 nM | – | –
3 | COC(=O)N[C@H]1CCc2cccc3c2N(C1=O)[C@H](c1nc2ccc(-c4ccc5nc(-c6ccc7nc([C@@H]8CCCN8C(=O)[C@@H](NC(=O)OC)C(C)C)[nH]c7c6)cnc5c4)cc2[nH]1)C3 [Compound I-6] | 0.2 nM | 17.5 nM | – | –
4 | COC(=O)N[C@H]1CCc2cccc3c2N(C1=O)[C@H](c1ncc(-c2ccc(-c4ccc(-c5cnc(C6CC7(CCOCC7)CN6C(=O)[C@@H](NC(=O)OC)C(C)C)[nH]5)cc4)cc2)[nH]1)C3 (stereo partly drawn) [Compound I-9, {(2S,5S)-2-[5-(4′-{2-[2-((S)-2-Methoxycarbonylamino-3-methyl-butyryl)-8-oxa-2-aza-spiro[4.5]dec-3-yl]-3H-imidazol-4-yl}-biphenyl-4-yl)-1H-imidazol-2-yl]-4-oxo-1,2,4,5,6,7-hexahydro-azepino[3,2,1-hi]indol-5-yl}-carbamic acid methyl ester] | 0.03 nM | 3.36 nM | – | –
5 | COC(=O)N[C@H]1CCc2cccc3c2N(C1=O)[C@H](c1nc2ccc(-c4ccc(-c5cnc([C@@H]6CCCN6C(=O)[C@@H](NC(=O)OC)C(C)C)[nH]5)cc4)cc2[nH]1)C3 [Compound I-10, {(2S,5S)-2-[6-(4-{2-[(S)-1-((S)-2-Methoxycarbonylamino-3-methyl-butyryl)-pyrrolidin-2-yl]-3H-imidazol-4-yl}-phenyl)-1H-benzoimidazol-2-yl]-4-oxo-1,2,4,5,6,7-hexahydro-azepino[3,2,1-hi]indol-5-yl}-carbamic acid methyl ester] | 0.1 nM | 43.3 nM | – | –
6 | COC(=O)N[C@H]1CCc2cccc3c2N(C1=O)[C@H](c1nc2ccc(-c4ccc(-c5ccc(-c6cnc([C@@H]7CCCN7C(=O)[C@@H](NC(=O)OC)C(C)C)[nH]6)cc5)cc4)cc2[nH]1)C3 [Compound I-11, {(2S,5S)-2-[6-(4′-{2-[(S)-1-((S)-2-Methoxycarbonylamino-3-methyl-butyryl)-pyrrolidin-2-yl]-3H-imidazol-4-yl}-biphenyl-4-yl)-1H-benzoimidazol-2-yl]-4-oxo-1,2,4,5,6,7-hexahydro-azepino[3,2,1-hi]indol-5-yl}-carbamic methyl ester] | 2.82 nM | 19.2 nM | – | –
7 | COC(=O)N[C@H]1CCc2cccc3c2N(C1=O)[C@H](c1ncc(-c2cnc4cc(-c5ccc(-c6cnc([C@@H]7CC(F)(F)CN7C(=O)[C@@H](NC(=O)OC)C(C)C)[nH]6)cc5)ccc4c2)[nH]1)C3 [Compound I-19, ((2S,5S)-2-{5-[7-(4-{2-[(S)-1-((S)-2-Methoxycarbonylamino-3-methyl-butyryl)-4,4-difluoro-pyrrolidin-2-yl]-3H-imidazol-4-yl}-phenyl)-quinolin-3-yl]-1H-imidazol-2-yl}-4-oxo-1,2,4,5,6,7-hexahydro-azepino[3,2,1-hi]indol-5-yl)-carbamic acid methyl ester trifluroacetic acid] | – | 2.89 nM | 0.16 nM | –
8 | COC(=O)N[C@H]1CC(=O)c2cccc3c2N(C1=O)[C@H](c1ncc(-c2ccc(-c4ccc(-c5cnc([C@@H]6CCCN6C(=O)[C@@H](NC(=O)OC)C(C)C)[nH]5)cc4)cc2)[nH]1)C3 [Compound I-28, {(2S,5S)-2-[5-(4′-{2-[(S)-1-((S)-2-Methoxycarbonylamino-3-methyl-butyryl)-pyrrolidin-2-yl]-3H-imidazol-4-yl}-biphenyl-4-yl)-1H-imidazol-2-yl]-4,7-dioxo-1,2,4,5,6,7-hexahydro-azepino[3,2,1-hi]indol-5-yl}-carbamic acid methyl ester] | 0.01 nM | 1.81 nM | – | –
9 | COC(=O)N[C@H]1CCc2cccc3c2N(C1=O)[C@H](c1ncc(-c2ccc(-c4ccc(-c5nnc([C@@H]6CCCN6C(=O)[C@@H](NC(=O)OC)C(C)C)[nH]5)cc4)cc2)[nH]1)C3 [Compound I-61, {(2S,5S)-2-[5-(4′-{5-[(S)-1-((S)-2-Methoxycarbonylamino-3-methyl-butyryl)-pyrrolidin-2-yl]-4H-[1,2,4]triazol-3-yl}-biphenyl-4-yl)-1H-imidazol-2-yl]-4-oxo-1,2,4,5,6,7-hexahydro-azepino[3,2,1-hi]indol-5-yl}-carbamic acid methyl ester] | – | 67.2 nM | – | –
10 | COC(=O)N[C@H]1CCc2cccc3c2N(C1=O)[C@H](c1ncc(-c2ccc(-c4ccc(-c5cnc([C@@H]6COCCN6C(=O)[C@@H](NC(=O)OC)C(C)C)[nH]5)cc4)cc2)[nH]1)C3 [Compound I-64, {(2S,5S)-2-[5-(4′-{2-[(R)-4-((S)-2-Methoxycarbonylamino-3-methyl-butyryl)-morpholin-3-yl]-3H-imidazol-4-yl}-biphenyl-4-yl)-1H-imidazol-2-yl]-4-oxo-1,2,4,5,6,7-hexahydro-azepino[3,2,1-hi]indol-5-yl}-carbamic acid methyl ester] | – | 9.87 nM | – | –
11 | COC(=O)N[C@H]1CCc2cccc3c2N(C1=O)[C@H](c1ncc(-c2ccc(-c4ccc(-c5cnc(C6C7CC7CN6C(=O)[C@H](NC(=O)OC)c6ccccc6)[nH]5)cc4)cc2)[nH]1)C3 (stereo partly drawn) [Compound I-65, {(2S,5S)-2-[5-(4′-{2-[(S)-3-((R)-2-Methoxycarbonylamino-2-phenyl-acetyl)-3-aza-bicyclo[3.1.0]hex-2-yl]-3H-imidazol-4-yl}-biphenyl-4-yl)-1H-imidazol-2-yl]-4-oxo-1,2,4,5,6,7-hexahydro-azepino[3,2,1-hi]indol-5-yl}-carbamic acid methyl ester] | – | 67.2 nM | – | –
12 | COC(=O)N[C@H]1CCc2cccc3c2N(C1=O)[C@H](c1ncc(-c2ccc(-c4ccc(-c5cnc([C@@H]6CCCN6C(=O)[C@@H](NC(=O)OC)C(C)C)[nH]5)cc4)cc2)[nH]1)C3 [Compound I-66, {(2S,5S)-2-[5-(4′-{2-[(S)-1-((S)-2-Methoxycarbonylamino-3-methyl-butyryl)-pyrrolidin-2-yl]-3H-imidazol-4-yl}-biphenyl-4-yl)-1H-imidazol-2-yl]-4-oxo-1,2,4,5,6,7-hexahydro-azepino[3,2,1-hi]indol-5-yl}-carbamic acid methyl ester] | – | – | – | 0.036 nM
13 | COC(=O)N[C@H]1CCc2cccc3c2N(C1=O)[C@H](c1ncc(-c2ccc(-c4ccc(-c5cnc([C@@H]6CCCN7C(=O)CC[C@H](NC(=O)OC)C(=O)N67)[nH]5)cc4)cc2)[nH]1)C3 [Compound I-67] | – | – | – | 0.528 nM
14 | COC(=O)N[C@H]1CCc2cccc3c2N(C1=O)[C@H](c1nc2ccc(-c4ccc5cc(-c6cnc([C@@H]7CCCN7C(=O)[C@@H](NC(=O)OC)C(C)C)[nH]6)ccc5c4)cc2[nH]1)C3 [Compound I-68] | – | – | – | 0.062 nM
